According to US12692509B2, “Methods for generating new genes in organism and use thereof” (Qingdao Kingagroot Chemical Compound Co., Ltd., priority 2019, dated 2026):

Assays:
wild-type Jinjing 818 [1] = assay: Herbicide resistance test, T0 generation, spray application: wild-type control; format: in vivo, rice; details: 2, 4, 8 and 32 g a.i./mu
Protocol: (§1) The transformation seedlings of T0 generation identified as doubling event positive were transplanted into large plastic buckets in the greenhouse for expanding propagation to obtain seeds of T1 generation. After the seedlings began to tiller, the tillers were taken from vigorously growing strains, and planted in the same pots with the tillers of the wild-type control varieties at the same growth period. After the plant height reached about 20 cm, the herbicide resistance test was conducted. The herbicide used was Shuangzuocaotong (CAS No. 1622908-18-2) produced by our company, and its field dosage was usually 4 grams of active ingredients per mu (4 g a.i./mu). In this experiment, Shuangzuocaotong was applied at a dosage gradient of 2 g a.i./mu, 4 g a.i./mu, 8 g a.i./mu and 32 g a.i./muwith a walk-in spray tower.

[2] = system: QY2091 T0 generation HPPD gene doubling strain; assay: Herbicide resistance test, T0 generation, spray application: HPPD doubling strains; format: in vivo, rice; details: for phenotype of HPPD doubling event strains after application: 2, 4, 8 and 32 g a.i./mu
Protocol: as §1

wild-type Jinjing 818 [3] = assay: Herbicide resistance test at seedling stage, germination on 1/2 MS medium with herbicide: wild-type control; format: in vivo, rice; details: 1.2 μM in 1/2 MS medium, 10 days of cultivation in light
Protocol: (§2) The herbicide resistance of the T1 generation of the QY2091 HPPD doubled strain was tested at the seedling stage. After the T1 generation seeds were subjected to surface disinfection, they germinated on ½ MS medium containing 1.2 μM Shuangzuocaotong, and cultivated at 28° C., 16 hours light/8 hours dark, in which wild-type Jinjing 818 was used as a control.

[4] = system: T1 generation of the QY2091 HPPD doubled strain; assay: Herbicide resistance test at seedling stage, germination on 1/2 MS medium with herbicide: T1 of HPPD doubled strain; format: in vivo, rice; details: 1.2 μM in 1/2 MS medium, 10 days; lines QY2091-7, 13, 20, 22
Protocol: as §2

wild-type Huaidao No. 5 [5] = assay: PPO inhibitory herbicide resistance test, T0 generation, spray application: wild-type control; format: in vivo, rice; details: 0.18, 0.4 and 0.6 g ai/mu
Text: (§3) Transformation seedlings of QY2234 T0 generation identified as inversion event-positive were transplanted into large plastic buckets in the greenhouse to grow seeds of T1 generation. There were a large number of positive seedlings, so some T0 seedlings and wild-type control lines with similar growth period and status were selected. When the plant height reached about 20 cm, the herbicide resistance test was directly carried out. The herbicide used was a high-efficiency PPO inhibitory herbicide [drawing 1] produced by the company (code 2081, see […] Patent Application for Invention No. 202010281666.4). In this experiment, the herbicide was applied at the gradients of three levels, namely 0.18, 0.4, and 0.6 g ai/mu, by a walk-in type spray tower.

[6] = system: QY2234 T0 generation PPO1 inversion strain; assay: PPO inhibitory herbicide resistance test, T0 generation, spray application: PPO1 inversion lines; format: in vivo, rice
Text: as §3

wild-type Huaidao No. 5 [7] = assay: Herbicide resistance test of T1 generation seedlings, spraying: wild-type control; format: in vivo, rice; details: 5 days after application
Protocol: (§4) The herbicide resistance test was performed on the T1 generation of the QY2234/H5-851 PPO1 inversion lines at seedling stage. The wild-type Huaidao No. 5 was used as a control, and planted simultaneously with the T1 generation seeds of the inversion lines. When the seedlings reached a plant height of 15 cm, 2081 was applied by spraying at four levels of 0.3, 0.6, 0.9 and 1.2 g a.i./mu. The culture conditions were 28° C., with 16 hours of light and 8 hours of darkness.

[8] = system: QY2234/H5-851 T1 seedlings; assay: Herbicide resistance test of T1 generation seedlings, spraying: PPO1 inversion line; format: in vivo, rice; details: 5 days after application
Protocol: as §4

[9] = system: Plants containing the new EPSPS gene; assay: Herbicide bioassay on plants containing the new EPSPS gene; format: in vivo; details: rice plants from Agrobacterium-transformed calli
Text: These vectors were transferred into Agrobacterium for transforming calli of rice. Plants containing the new EPSPS gene were obtained.

[10] = T0 generation, versus wild type

Cc1nn(C)cc1C(=O)Oc1c(C(=O)c2ccc(C(F)(F)F)cc2S(C)(=O)=O)c(C)nn1C [Shuangzuocaotong]
phenotype of wild-type rice seedlings after application (wild-type Jinjing 818 [1]; 4 weeks after application): close to death
phenotype of wild-type control rice seedlings after application (wild-type Jinjing 818 [1]; 5-7 days after application, spray tower): began to show albino
phenotype of HPPD doubling event strains after application ([2]; 4 weeks after application): all continued to remain green and grew normally
phenotype of HPPD doubling event strains after application ([2]; 5-7 days after application): all remained normally green
tolerance of HPPD gene-doubled strains to the herbicide [2, 10]: significantly improved tolerance
resistance of plants to the HPPD inhibitory herbicide ([2]; T0 transformed seedlings, field dosage 4 g a.i./mu): up to 8 times the field dose
phenotype of wild-type control rice seedlings (wild-type Jinjing 818 [3]): almost all albino
phenotype of green T1 seedlings of HPPD doubling lines [4]: continued to remain green and grew normally

COC(=O)[C@@H](C)O/N=C/c1cc(-n2c(=O)cc(C(F)(F)F)n(C)c2=O)c(F)cc1Cl [compound 2081]
phenotype of wild-type control rice seedlings after application (wild-type Huaidao No. 5 [5]; 3-5 days after application): began to wither from tip of leaf, necrotic spots appeared on the leaves, and the plants gradually withered
phenotype of wild-type rice seedlings after application (wild-type Huaidao No. 5 [5]; two weeks after application): died
phenotype of most lines of the PPO1 inversion event after application ([6]; 3-5 days after application, 0.18, 0.4 and 0.6 g ai/mu): maintained normal growth, the leaves had no obvious phytotoxicity
tolerance of PPO1 inversion lines to the herbicide [6, 10]: significantly improve the tolerance
phenotype of most inversion event strains after application ([6]; two weeks after application, 0.18, 0.4 and 0.6 g ai/mu): continued to remain green and grew normally
phytotoxicity on wild-type control rice seedlings (wild-type Huaidao No. 5 [7]; 0.3 g a.i./mu): obvious phytotoxicity
phytotoxicity on wild-type control (wild-type Huaidao No. 5 [7]; 0.6 and 0.9 g ai/mu): substantially died off
phytotoxicity on wild-type control rice seedlings (wild-type Huaidao No. 5 [7]; 0.6 g a.i./mu): the plants died quickly
phytotoxicity on wild-type control plants (wild-type Huaidao No. 5 [7]; 1.2 g a.i./mu): all dead
phytotoxicity on QY2234/H5-851 T1 seedlings ([8]; 0.3 g a.i./mu): maintain normal growth
phytotoxicity on QY2234/H5-851 T1 seedlings ([8]; 0.6 and 0.9 g ai/mu): most T1 seedlings could keep green and continue to grow
phytotoxicity on QY2234/H5-851 T1 seedlings ([8]; 1.2 g a.i./mu): some of the T1 seedlings could keep green and continue to grow

O=C(O)CNCP(=O)(O)O [glyphosate]
resistance of plants containing the new EPSPS gene to the herbicide [9]: obvious resistance
